The assay deals with T1, CYP11A1 (Homo sapiens, UniProt P05108).
T1 construct: human H295R adrenocortical carcinoma cell line was used as source of enzyme; endogenous in cells; host or cells: H295R human adrenocortical carcinoma cells
T1 sequence (P05108 40-521): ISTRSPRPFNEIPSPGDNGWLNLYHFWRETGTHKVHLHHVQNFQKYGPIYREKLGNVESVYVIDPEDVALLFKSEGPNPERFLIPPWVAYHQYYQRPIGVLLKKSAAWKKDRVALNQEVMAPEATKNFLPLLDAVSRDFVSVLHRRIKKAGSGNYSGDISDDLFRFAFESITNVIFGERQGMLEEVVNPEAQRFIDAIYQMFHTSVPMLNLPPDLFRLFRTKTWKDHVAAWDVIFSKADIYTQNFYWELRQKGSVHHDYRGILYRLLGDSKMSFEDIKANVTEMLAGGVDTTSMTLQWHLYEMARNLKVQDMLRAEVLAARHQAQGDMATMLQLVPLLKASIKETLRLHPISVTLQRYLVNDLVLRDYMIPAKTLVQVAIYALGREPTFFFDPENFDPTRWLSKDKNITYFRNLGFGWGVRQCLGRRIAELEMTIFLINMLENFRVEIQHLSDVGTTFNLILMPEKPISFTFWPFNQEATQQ
Description: CYP11A1 inhibition: modified isocaproic acid release assay (IARA) in H295R cells. It is filed as cell-based. The note with it: human H295R adrenocortical carcinoma cells treated three days, 3 nM [24,25-3H]-labelled cholesterol, 1% DMSO, 10 concentrations in duplicates; read-out: IC50 of the test compounds on CYP11A1 inhibition. Summed up:
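H295R adrenocortical cells treated three days with test compounds at 10 concentrations in duplicate plus 3 nM [24,25-3H]-cholesterol, 1% DMSO final. Released radiolabelled isocaproic acid measured by scintillation counting after dextran-coated charcoal extraction; IC50 determined.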
The IC50 is the concentration at which inhibition is half-maximal. As to `O=c1cc(CN2Cc3ccccc3C2)occ1OCc1ccc([N+](=O)[O-])cc1` [Compound 38, 2-(Isoindolin-2-ylmethyl)-5-((4-nitrobenzyl)oxy)-4H-pyran-4-one], the IC50 lay within 301 to 2000 nM.

With `O=c1cc(CN2Cc3ccccc3C2)occ1OCC1CCN(S(=O)(=O)N2CCC2)CC1` [Compound 268, 5-((1-(Azetidin-1-ylsulfonyl)piperidin-4-yl)methoxy)-2-(isoindolin-2-ylmethyl)-4H-pyran-4-one], the IC50 lay in the range of 150 to 300 nM. For `O=C(c1ccc(COc2coc(CN3Cc4ccccc4C3)cc2=O)c(F)c1)N1CCC1` [Compound 95, 5-((4-(Azetidine-1-carbonyl)-2-fluorobenzyl)oxy)-2-(isoindolin-2-ylmethyl)-4H-pyran-4-one], the IC50 is below 150 nM. The result for `CCS(=N)(=O)c1ccc(COc2coc(CN3CCc4ccccc4C3)cc2=O)cc1` (stereo not drawn) [Compound 166, 2-((3,4-Dihydroisoquinolin-2(1H)-yl)methyl)-5-((4-(ethylsulfonimidoyl)-benzyl)oxy)-4H-pyran-4-one] reads 301 to 2000 nM; that for `CS(=O)(=O)NCc1ccc(COc2coc(CN3Cc4ccccc4C3)cc2=O)cc1` [Compound 113, N-(4-(((6-(Isoindolin-2-ylmethyl)-4-oxo-4H-pyran-3-yl)oxy)methyl)benzyl)-methanesulfonamide], below 150 nM; that for `CS(=O)(=O)N1CCC(COc2coc(CN3Cc4cc(F)c(F)cc4C3)cc2=O)CC1` [Compound 210, 2-((5,6-Difluoroisoindolin-2-yl)methyl)-5-((1-(methylsulfonyl)piperidin-4-yl)methoxy)-4H-pyran-4-one], 150 to 300 nM. The result for `CS(=O)(=O)c1ccc(COc2coc(CN3Cc4ccccc4C3)cc2=O)cc1F` [Compound 17, 5-((3-Fluoro-4-(methylsulfonyl)benzyl)oxy)-2-(isoindolin-2-ylmethyl)-4H-pyran-4-one] reads 301 to 2000 nM; that for `CC(F)(F)C(=O)N1CCC(COc2coc(CN3Cc4ccccc4C3)cc2=O)CC1` [Compound 222, 5-((1-(2,2-Difluoropropanoyl)piperidin-4-yl)methoxy)-2-(isoindolin-2-ylmethyl)-4H-pyran-4-one], below 150 nM; that for `O=c1cc(CN2Cc3ccccc3C2)occ1OCc1ccc(C(F)(F)F)nc1` [Compound 75, 2-(Isoindolin-2-ylmethyl)-5-((6-(trifluoromethyl)pyridin-3-yl)methoxy)-4H-pyran-4-one], 301 to 2000 nM. Next, `O=C(c1ccco1)N1CCC(COc2coc(CN3Cc4ccccc4C3)cc2=O)CC1` [Compound 260, 5-((1-(Furan-2-carbonyl)piperidin-4-yl)methoxy)-2-(isoindolin-2-ylmethyl)-4H-pyran-4-one]: 150 to 300 nM. Regarding `CS(=O)(=O)c1ccc(COc2coc(CN3Cc4ccccc4C3)cc2=O)cc1` [Compound 1, 2-(Isoindolin-2-ylmethyl)-5-((4-(methylsulfonyl)benzyl)oxy)-4H-pyran-4-one], the 50% inhibitory concentration (IC50) fell in the range of 150 to 300 nM. `CC(C)(C)OC(=O)N1CCC(Oc2coc(CN3Cc4ccccc4C3)cc2=O)CC1` [Compound 203, tert-Butyl 4-((6-(isoindolin-2-ylmethyl)-4-oxo-4H-pyran-3-yl)oxy)piperidine-1-carboxylate]: the IC50 lay within 301 to 2000 nM. Consider `CNC(=O)c1ccc(COc2coc(CN3CCc4ccccc4C3)cc2=O)cc1` [Compound 48, 4-(((6-((3,4-Dihydroisoquinolin-2(1H)-yl)methyl)-4-oxo-4H-pyran-3-yl)oxy)-methyl)-N-methylbenzamide], for which the IC50 is 301 to 2000 nM.

For `CS(=O)(=O)c1ccc(COc2coc(CN3CCc4ccccc4C3)cc2=O)c(Cl)c1` [Compound 18, 5-((2-Chloro-4-(methylsulfonyl)benzyl)oxy)-2-((3,4-dihydroisoquinolin-2(1H)-yl)methyl)-4H-pyran-4-one], the IC50 lay within 301 to 2000 nM. For `CS(=O)(=O)C1CCC(COc2coc(CN3Cc4ccccc4C3)cc2=O)CC1` (stereo not drawn) [Compound 220, 2-(Isoindolin-2-ylmethyl)-5-((4-(methylsulfonyl)cyclohexyl)methoxy)-4H-pyran-4-one], the IC50 lay within 150 to 300 nM.

On to `CC(C)(C)OC(=O)N1CC[C@@H](COc2coc(CN3Cc4ccccc4C3)cc2=O)C1` [Compound 199, (R)-tert-Butyl 3-(((6-(isoindolin-2-ylmethyl)-4-oxo-4H-pyran-3-yl)oxy)methyl)-pyrrolidine-1-carboxylate], for which the IC50 is 150 to 300 nM. For the compound `CS(=N)(=O)C1CCC(COc2coc(CN3Cc4ccccc4C3)cc2=O)CC1` (stereo not drawn) [Compound 240, 2-(Isoindolin-2-ylmethyl)-5-((4-(S-methylsulfonimidoyl)cyclohexyl)methoxy)-4H-pyran-4-one], the IC50 lay within 301 to 2000 nM. The result for `CS(=O)(=O)c1ccc(COc2coc(CN3Cc4cc5c(cc4C3)OCO5)cc2=O)cc1` [Compound 66, 2-((5,7-Dihydro-6H-[1,3]dioxolo[4,5-f]isoindol-6-yl)methyl)-5-((4-(methyl-sulfonyl)benzyl)oxy)-4H-pyran-4-one] reads 301 to 2000 nM; that for `CNC(=O)c1ccc(COc2coc(CN3Cc4ccccc4C3)cc2=O)cc1` [Compound 62, 4-(((6-(Isoindolin-2-ylmethyl)-4-oxo-4H-pyran-3-yl)oxy)methyl)-N-methylbenzamide], 301 to 2000 nM; that for `CSc1ccc2c(c1)CN(Cc1cc(=O)c(OCc3ccc(S(C)(=O)=O)cc3)co1)C2` [Compound 280, 5-((4-(Methylsulfonyl)benzyl)oxy)-2-((5-(methylthio)isoindolin-2-yl)methyl)-4H-pyran-4-one], 150 to 300 nM. For the compound `CS(=N)c1ccc(COc2coc(CN3Cc4ccccc4C3)cc2=O)cc1` (stereo not drawn) [Compound 85, 2-(Isoindolin-2-ylmethyl)-5-((4-(S-methylsulfinimidoyl)benzyl)oxy)-4H-pyran-4-one], the IC50 lay within 150 to 300 nM.

For `CN(C)C(=O)N1CCC(COc2coc(CN3Cc4ccccc4C3)cc2=O)C1` (stereo not drawn) [Compound 183, 3-(((6-(Isoindolin-2-ylmethyl)-4-oxo-4H-pyran-3-yl)oxy)methyl)-N,N-dimethyl-pyrrolidine-1-carboxamide], the IC50 is 301 to 2000 nM. The result for `O=C(c1ccc(COc2coc(CN3Cc4ccc(F)cc4C3)cc2=O)cc1)N1CC(F)(F)C1` [Compound 161, 5-((4-(3,3-Difluoroazetidine-1-carbonyl)benzyl)oxy)-2-((5-fluoroisoindolin-2-yl)methyl)-4H-pyran-4-one] reads 150 to 300 nM. The result for `CN(C)C(=O)c1c(F)cc(COc2coc(CN3Cc4ccccc4C3)cc2=O)cc1F` [Compound 174, 2,6-Difluoro-4-(((6-(isoindolin-2-ylmethyl)-4-oxo-4H-pyran-3-yl)oxy)methyl)-N,N-dimethylbenzamide] reads 150 to 300 nM; that for `CC(C)(O)c1ccc(COc2coc(CN3CCc4ccccc4C3)cc2=O)cc1` [Compound 44, 2-((3,4-dihydroisoquinolin-2(1H)-yl)methyl)-5-((4-(2-hydroxypropan-2-yl)-benzyl)oxy)-4H-pyran-4-one], below 150 nM. The result for `CC(C)(C)OC(=O)N1CC[C@H](COc2coc(CN3Cc4ccccc4C3)cc2=O)C1` [Compound 200, (S)-tert-Butyl 3-(((6-(isoindolin-2-ylmethyl)-4-oxo-4H-pyran-3-yl)oxy)methyl)-pyrrolidine-1-carboxylate] reads 150 to 300 nM; that for `O=c1cc(CN2Cc3ccccc3C2)occ1OCc1ccc(S(=O)(=O)NCCO)cc1` [Compound 15, N-(2-Hydroxyethyl)-4-(((6-(isoindolin-2-ylmethyl)-4-oxo-4H-pyran-3-yl)-oxy)methyl)benzenesulfonamide], below 150 nM. Turning to `C[S+]([O-])c1ccc(COc2coc(CN3Cc4ccccc4C3)cc2=O)cc1` (stereo not drawn) [Compound 81, 2-(Isoindolin-2-ylmethyl)-5-((4-(methylsulfinyl)benzyl)oxy)-4H-pyran-4-one], the IC50 was in the range of 150 to 300 nM. Next, `N#Cc1ccc(COc2coc(CN3CCc4ccccc4C3)cc2=O)cc1` [Compound 41, 4-(((6-((3,4-Dihydroisoquinolin-2(1H)-yl)methyl)-4-oxo-4H-pyran-3-yl)oxy)-methyl)benzonitrile]: 301 to 2000 nM; `Cc1ccc2c(c1)CN(Cc1cc(=O)c(OCc3ccc(S(C)(=O)=O)cc3)co1)C2` [Compound 279, 2-((5-Methylisoindolin-2-yl)methyl)-5-((4-(methylsulfonyl)benzyl)oxy)-4H-pyran-4-one]: 150 to 300 nM; `COCCS(=O)(=O)c1ccc(COc2coc(CN3Cc4ccc(F)cc4C3)cc2=O)cc1` [Compound 29, 2-((5-Fluoroisoindolin-2-yl)methyl)-5-((4-((2-methoxyethyl)sulfonyl)benzyl)oxy)-4H-pyran-4-one]: 150 to 300 nM. Next, `CN(C)C(=O)Cc1ccc(COc2coc(CN3Cc4ccccc4C3)cc2=O)cc1` [Compound 136, 2-(4-(((6-(Isoindolin-2-ylmethyl)-4-oxo-4H-pyran-3-yl)oxy)methyl)phenyl)-N,N-dimethylacetamide]: 150 to 300 nM.

In the case of `NS(=O)(=O)c1ccc(COc2coc(CN3Cc4ccccc4C3)cc2=O)cc1` [Compound 13, 4-(((6-(Isoindolin-2-ylmethyl)-4-oxo-4H-pyran-3-yl)oxy)methyl)benzenesulfonamide], the half-inhibitory concentration (IC50) was 301 to 2000 nM.

The record behind these values is patent publication US11098032B2, “Pyran dervatives as CYP11A1 (cytochrome P450 monooxygenase 11A1) inhibitors” (ORION CORPORATION, priority 2016, dated 2021).
